According to the supplement of paper PMC10307832:

What was measured:
Experiment in all cases: relative viability (nuclei count vs DMSO), 5 days (fraction); higher = more cells survive
Kobe2602 + Olaparib = compound: C1=CC(=CC=C1NC(=S)NNC2=C(C=C(C=C2[N+](=O)[O-])C(F)(F)F)[N+](=O)[O-])F [Kobe2602] + O=C(c1cc(Cc2n[nH]c(=O)c3ccccc23)ccc1F)N1CCN(C(=O)C2CC2)CC1 [Olaparib] (partner 8 µM)
Outline: (§1)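 Each reported value is a median over duplicate plates. It expresses relative viability: treated-well nuclei count divided by vehicle-well nuclei count. Lung cancer cell lines in 1536-well plates were dosed by pin tool a day after seeding, alone with one drug or with a fixed anchor-drug dose plus five library-drug doses (not always all listed) in √10 steps, and nuclei were counted after 5 days.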

[1] = compound: COc1cc2nccc(Oc3ccc(NC(=O)C4(C(=O)Nc5ccc(F)cc5)CC4)cc3)c2cc1OC [Cabozantinib] + CS(=O)(=O)N1CCN(Cc2cc3nc(-c4cccc5[nH]ncc45)nc(N4CCOCC4)c3s2)CC1 [Pictilisib] (partner 1 µM)
Outline: as §1

Cabozantinib + Dasatinib = compound: COc1cc2nccc(Oc3ccc(NC(=O)C4(C(=O)Nc5ccc(F)cc5)CC4)cc3)c2cc1OC [Cabozantinib] + Cc1nc(Nc2ncc(C(=O)Nc3c(C)cccc3Cl)s2)cc(N2CCN(CCO)CC2)n1 [Dasatinib] (partner 0.075 µM)
Outline: as §1

Cabozantinib + AZD7762 = compound: COc1cc2nccc(Oc3ccc(NC(=O)C4(C(=O)Nc5ccc(F)cc5)CC4)cc3)c2cc1OC [Cabozantinib] + NC(=O)Nc1cc(-c2cccc(F)c2)sc1C(=O)N[C@H]1CCCNC1 [AZD7762] (partner 0.2 µM)
Outline: as §1

| Cell Line | relative viability (Kobe2602 + Olaparib; first compound 0.2 µM) | relative viability (Kobe2602 + Olaparib; first compound 0.6325 µM) | relative viability (Kobe2602 + Olaparib; first compound 2 µM) | relative viability (Kobe2602 + Olaparib; first compound 6.325 µM) | relative viability (Kobe2602 + Olaparib; first compound 20 µM) | relative viability ([1]; first compound 0.02 µM) | relative viability ([1]; first compound 0.06325 µM) | relative viability ([1]; first compound 0.2 µM) | relative viability ([1]; first compound 0.6325 µM) | relative viability ([1]; first compound 2 µM) | relative viability (Cabozantinib + Dasatinib; first compound 0.02 µM) | relative viability (Cabozantinib + Dasatinib; first compound 0.06325 µM) | relative viability (Cabozantinib + Dasatinib; first compound 0.2 µM) | relative viability (Cabozantinib + Dasatinib; first compound 0.6325 µM) | relative viability (Cabozantinib + Dasatinib; first compound 2 µM) | relative viability (Cabozantinib + AZD7762; first compound 0.02 µM) | relative viability (Cabozantinib + AZD7762; first compound 0.06325 µM) | relative viability (Cabozantinib + AZD7762; first compound 0.2 µM) | relative viability (Cabozantinib + AZD7762; first compound 0.6325 µM) | relative viability (Cabozantinib + AZD7762; first compound 2 µM) |
| --- | --- | --- | --- | --- | --- | --- | --- | --- | --- | --- | --- | --- | --- | --- | --- | --- | --- | --- | --- | --- |
| NCI-H1355 | 0.742 | 0.747 | 0.712 | 0.727 | 0.601 | 0.49 | 0.442 | 0.453 | 0.432 | 0.526 | 0.563 | 0.78 | 0.73 | 0.678 | 0.734 | 0.703 | 0.919 | 0.83 | 0.754 | 0.746 |
| NCI-H1395 | 0.447 | 0.487 | 0.463 | 0.535 | 0.486 | 0.657 | 0.644 | 0.609 | 0.675 | 0.689 | 0.363 | 0.473 | 0.423 | 0.458 | 0.37 | 0.367 | 0.445 | 0.436 | 0.42 | 0.401 |
| NCI-H1437 | 0.666 | 0.632 | 0.6 | 0.562 | 0.475 | 0.382 | 0.474 | 0.486 | 0.471 | 0.429 | 0.263 | 0.617 | 0.371 | 0.377 | 0.309 | 1.16 | 1.18 | 1.19 | 1.21 | 1.04 |
| NCI-H1651 | 0.186 | 0.165 | 0.189 | 0.19 | 0.193 | 0.548 | 0.62 | 0.513 | 0.547 | 0.468 | 0.336 | 0.39 | 0.327 | 0.335 | 0.396 | 0.391 | 0.544 | 0.444 | 0.438 | 0.39 |
| NCI-H1666 | 0.717 | 0.741 | 0.829 | 0.774 | 0.805 | 0.404 | 0.4 | 0.396 | 0.503 | 0.439 | 0.727 | 0.899 | 0.766 | 0.839 | 0.795 | 0.712 | 1.02 | 0.763 | 0.921 | 0.814 |
| NCI-H1734 | 0.601 | 0.626 | 0.635 | 0.642 | 0.665 | 0.417 | 0.414 | 0.472 | 0.453 | 0.434 | 0.389 | 0.452 | 0.467 | 0.402 | 0.34 | 0.522 | 0.655 | 0.563 | 0.575 | 0.544 |
| NCI-H1755 | 0.848 | 0.893 | 0.87 | 0.853 | 0.915 | 0.445 | 0.534 | 0.383 | 0.358 | 0.309 | 0.299 | 0.479 | 0.396 | 0.313 | 0.239 | 0.449 | 0.494 | 0.471 | 0.39 | 0.547 |
| NCI-H1792 | 0.372 | 0.556 | 0.398 | 0.253 | 0.566 | 0.334 | 0.318 | 0.301 | 0.293 | 0.268 | – | 0.878 | 0.77 | 0.727 | 0.644 | – | 1.05 | 0.684 | 0.506 | 0.335 |
